Test results reported in patent US7186534B1 (The Trustees of Columbia University in the City of New York, priority 1997, dated 2007).

What was measured:
[1] = target: T1, human 9-cis retinol dehydrogenase (9cRDH) (Homo sapiens, UniProt Q92781); assay: Inhibition of recombinant human 9cRDH activity (9-cis-retinol oxidation, CHO cell homogenate, HPLC); format: biochemical
T1 sequence (Q92781 1-318): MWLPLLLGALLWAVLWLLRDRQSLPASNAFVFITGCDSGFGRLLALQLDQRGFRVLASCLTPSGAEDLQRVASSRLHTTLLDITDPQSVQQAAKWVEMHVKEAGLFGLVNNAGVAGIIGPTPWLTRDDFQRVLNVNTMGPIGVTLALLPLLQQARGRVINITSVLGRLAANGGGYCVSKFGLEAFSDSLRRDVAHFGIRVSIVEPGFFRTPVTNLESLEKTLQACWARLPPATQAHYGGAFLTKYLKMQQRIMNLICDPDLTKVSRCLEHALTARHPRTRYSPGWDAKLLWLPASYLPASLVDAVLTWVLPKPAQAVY

[2] = target: T2, mouse 9cRDH (Mus musculus, UniProt O55240); assay: Inhibition of recombinant mouse 9cRDH activity (9-cis-retinol oxidation, CHO cell homogenate, HPLC); format: biochemical; conditions: for inhibition of mouse 9cRDH activity (in words): 10 μM 9-cis-retinol
T2 sequence (O55240 1-318): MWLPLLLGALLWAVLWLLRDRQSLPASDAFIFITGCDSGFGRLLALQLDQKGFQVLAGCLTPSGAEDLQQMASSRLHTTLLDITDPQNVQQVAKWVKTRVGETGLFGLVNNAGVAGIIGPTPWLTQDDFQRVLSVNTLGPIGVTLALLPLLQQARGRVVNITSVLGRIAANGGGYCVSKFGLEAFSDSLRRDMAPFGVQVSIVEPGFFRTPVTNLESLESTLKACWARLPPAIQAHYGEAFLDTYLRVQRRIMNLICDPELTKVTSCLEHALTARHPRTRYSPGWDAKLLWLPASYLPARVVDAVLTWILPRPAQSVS

[3] = target: T3, human 9cRDH (Homo sapiens, UniProt Q92781); assay: Hydroxysteroid oxidation/reduction by human 9cRDH (TLC); format: biochemical; conditions: 37° C., 1.5 h; TLC detection limit approximately 3 pmol/min/mg protein
T3 sequence (Q92781 1-318): T1 sequence (Q92781 1-318)
Protocol: (§1) To investigate whether human or mouse 9cRDH will catalyze oxidations or reductions of 3α-hydroxy-, 11β-hydroxy- or 17β-hydroxysteroids, these steroids were incubated at 37° C. for 1.5 h in the assay media described above for assessing oxidation/reduction of 9-cis-retinol/9-cis-retinaldehyde. The Hepes NAD^+-containing assay buffer described above was employed to assess hydroxysteroid oxidation and to assess hydroxysteroid reduction the acetate buffer containing NADH (or NADPH) assay buffer (see above) was employed. Immediately following incubation, the steroids were extracted as described above for retinoids. The final hexane extract was evaporated to near dryness and this was spotted onto a silica high performance TLC plate (Whatman Inc., Clifton, N.J.) and developed in hexane/diethyl ether/acetic acid (70:30:1, v/v) or ethyl acetate/chloroform (25:75, v/v). Steroids were visualized by charring after treatment of the TLC plates with an areosol of 10% (v/v) H2SO4 in methanol.
(§2) Biswas and Russell (32) have reported that rat liver all-trans-retinol dehydrogenase type I also uses several 3α-hydroxy- and 17β-hydroxysteroids as substrates. Chai et al. (18) also reported that hydroxysteroids are substrates for mouse liver cis-retinol dehydrogenase. Since human 9cRDH is approximately 50% identical to the rat liver enzymes and shares approximately 63% homology to mouse liver cis-retinol dehydrogenase, next investigated was whether these steroids might also be substrates for 9cRDH. To test this possibility it was determined whether human or mouse 9cRDH would catalyze oxidation of 5α-androstan-3α, 17β-diol, androsterone, testosterone or dihydrotestosterone to corresponding ketone products. Also investigated was whether human and/or mouse 9cRDH could catalyze reduction of the corresponding ketones. […] It is estimate, based on the lower limits for hydroxysteroid detection by TLC, that it would be possible to detect rates of hydroxysteroid oxidation as low as approximately 3 pmol/min/mg protein. This rate of hydroxysteroid oxidation is at least 2-orders of magnitude lower than Vmax values reported by Biswas and Russell (32) and Chai et al. (18) for oxidation of hydroxysteroids in their studies of enzymes that are able to oxidize both retinol and hydroxysteroids.

[4] = target: T2, mouse 9cRDH; assay: Hydroxysteroid oxidation/reduction by mouse 9cRDH (TLC); format: biochemical; conditions: 37° C., 1.5 h; TLC detection limit approximately 3 pmol/min/mg protein
Protocol: as §1, §2

[5] = target: rat liver and human prostate 17β-hydroxysteroid dehydrogenase (identical to retinol dehydrogenase, type I); conditions: cited from earlier work
[6] = system: visual cycle; conditions: administration to frogs; cited from earlier work
[7] = Isomerization of retinoic acids in the human 9-cis retinol dehydrogenase assay; format: physicochemical; conditions: for 13-cis isomer present at end of assay / all-trans isomer present at end of assay / 9-cis isomer present at end of assay: 37° C., 15 minutes; for final concentration of 13-cis-retinoic acid formed by isomerization: 10 μM retinoic acid, end of the 15 minute assay
Protocol: Inhibition Studies of 9cRDH Activity. For the inhibition experiments, each potential inhibitor tested was added to the recombinant 9cRDH in 5 μl of ethanol in the presence of 2 mM NAD^+, 10 mM Hepes, pH 8.0, containing 150 mM KCl, 1 mM EDTA, and 50 μg phosphotidyl choline (assay incubation mixture lacking the retinoid substrate). This mixture was allowed to sit on ice for 5 minutes prior to adding substrate. Upon addition of 10 μM 9-cis-retinol (final concentration), the mixture was incubated for 15 minutes at […] with agitation and extracted as described above for the standard enzyme assay. HPLC Procedures. Stereoisomers of both retinol and retinaldehyde were separated on a 4.6×15-mm Supelco (Belefonte, Pa.) LC-SI Supelcosil™ column using hexane:ethyl acetate:butanol (96.9:3:0.1 v/v) as the mobile phase flowing at 0.8 ml/min. A silica guard column (Supelco) preceded the running column. Retinols and retinaldehydes were detected using a Waters 996 Photodiode array detector at absorbances of 325 and 365 nm, respectively. Retention times for all-trans-, 9-cis-, 11-cis-, and 13-cis-retinols and corresponding retinaldehydes were established using the purified compounds obtained as described above. Quantities of each retinol and retinaldehyde isomer present in extracts were determined by comparisons of the integrated areas under the HPLC peaks with a standard curve constructed relating integrated peak area with known masses of each retinoid isomer. The concentration of each retinoid isomer were determined by UV-visible spectrophotometry using published extinction coefficients for each retinol, retinaldehyde or retinoic acid isomer (25).
To test this possibility, the degree of isomerization of retinoic acid which occurs under the assay conditions was measured.

[8] = target: human alcohol dehydrogenase type IV (Homo sapiens, UniProt P40394); conditions: cited from earlier work
Chain of human alcohol dehydrogenase type IV (P40394 whole entry): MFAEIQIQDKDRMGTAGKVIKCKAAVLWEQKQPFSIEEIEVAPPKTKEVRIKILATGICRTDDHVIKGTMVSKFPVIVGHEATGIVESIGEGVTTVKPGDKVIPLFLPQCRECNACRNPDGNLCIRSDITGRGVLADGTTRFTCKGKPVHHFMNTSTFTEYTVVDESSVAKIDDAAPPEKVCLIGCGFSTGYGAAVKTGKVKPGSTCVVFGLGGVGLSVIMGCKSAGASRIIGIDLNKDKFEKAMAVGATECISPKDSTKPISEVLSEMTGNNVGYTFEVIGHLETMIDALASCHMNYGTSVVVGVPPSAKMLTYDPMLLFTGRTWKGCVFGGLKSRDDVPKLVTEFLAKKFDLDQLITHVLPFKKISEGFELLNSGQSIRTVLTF

[9] = animals and humans receiving 13-cis-retinoic acid pharmacologically; cited from earlier work
[10] = 1 μM 13-cis Retinoic Acid at start

C[C@]12CC[C@@H](O)C[C@@H]1CC[C@@H]1[C@@H]2CC[C@]2(C)C(=O)CC[C@@H]12 [androsterone]
inhibition of human 9cRDH activity by hydroxysteroids [1]: none of these hydroxysteroids inhibited | inhibition of mouse 9cRDH activity by hydroxysteroids [2]: none of these hydroxysteroids inhibited | catalysis by human 9cRDH of hydroxysteroid oxidation to ketone products (or reduction of the corresponding ketones) [3]: Neither human nor mouse 9cRDH were found to catalyze | catalysis by mouse 9cRDH of hydroxysteroid oxidation to ketone products (or reduction of the corresponding ketones) [4]: Neither human nor mouse 9cRDH were found to catalyze

CC1=C(/C=C/C(C)=C/C=C/C(C)=C\C(=O)O)C(C)(C)CCC1 [13-cis Retinoic Acid, 13-cis-retinoic acid]
concentration at which human 9cRDH is potently inhibited [1]: 0.05 µM | expected inhibition of h9cRDH activity ([1]; 0.1 μM 13-cis-retinoic acid present for the full 15 minute incubation): 40–50% | inhibition of human 9cRDH activity (in words) ([1]; 10 μM 9-cis-retinol, listed as 13-cis retinoic acid): potent inhibitors | inhibition of human 9cRDH activity (in words) ([1]; 10 μM 9-cis-retinol, listed as 13-cis-retinoic acid): very potent inhibitors | Ki [5]: 4000 nM | block of the visual cycle in vivo (in words) [6]: block the visual cycle | concentration at which mouse 9cRDH is potently inhibited [2]: 0.05 µM | inhibition of mouse 9cRDH activity (in words) [2]: very potent inhibitors | IC50 ([2]; substrate concentration 10 μM, read-out: Inhibitor concentration giving approximately 50% inhibition of m9cRDH activity): ~150 nM | 13-cis isomer present at end of assay [7, 10]: 98.4% | all-trans isomer present at end of assay [7, 10]: 1.6% | inhibition of purified human alcohol dehydrogenase type IV (in words) [8]: in vitro inhibition | concentrations reached in the blood and tissues [9]: ≥ 10 µM

CC1=C(/C=C/C(C)=C/C=C/C(C)=C/C(=O)O)C(C)(C)CCC1 [all-trans Retinoic Acid, all-trans-retinoic acid]
times (fold) less potent than 13-cis retinoic acid as inhibitor of 9cRDH [1]: 30 | IC50 ([1]; 10 μM 9-cis-retinol, 15 min, 37° C., CHO cell homogenate, read-out: Estimated inhibitor concentration resulting in 50% inhibition of human 9-cis retinol dehydrogenase activity (ID50)): 4600 nM | inhibition of human 9cRDH activity (in words) ([1]; 10 μM 9-cis-retinol, listed as all-trans retinoic acid): potent inhibitors | inhibition of human 9cRDH activity (in words) ([1]; 10 μM 9-cis-retinol, listed as all-trans-retinoic acid): very potent inhibitors | inhibition at 10 µM ([1]; 10 μM retinoic acid): 66% | block of the visual cycle in vivo (in words) [6]: block the visual cycle | inhibition of mouse 9cRDH activity (in words) [2]: very potent inhibitors | 9-cis isomer present at end of assay ([7]; 10 μM retinoic acid at start): 0.4% | 13-cis isomer present at end of assay ([7]; 10 μM retinoic acid at start): 0.8% | all-trans isomer present at end of assay ([7]; 10 μM retinoic acid at start): 98.8% | 13-cis isomer present at end of assay ([7]; 10 μM retinoic acid at start, listed as all-trans-retinoic acid): approximately 1% | final concentration of 13-cis-retinoic acid formed by isomerization [7]: approximately 0.1 μM

CC1=C(/C=C/C(C)=C\C=C\C(C)=C\C(=O)O)C(C)(C)CCC1 [9-cis Retinoic Acid, 9-cis-retinoic acid]
times (fold) less potent than 13-cis retinoic acid as inhibitor of 9cRDH [1]: 18 | inhibition of human 9cRDH activity (in words) ([1]; 10 μM 9-cis-retinol, listed as 9-cis retinoic acid): potent inhibitors | inhibition of human 9cRDH activity (in words) ([1]; 10 μM 9-cis-retinol, listed as 9-cis-retinoic acid): very potent inhibitors | inhibition of 9cRDH activity ([1]; 10 μM retinoic acid): 81% | Ki [5]: 400 nM | inhibition of mouse 9cRDH activity (in words) [2]: very potent inhibitors | 9-cis isomer present at end of assay ([7]; 10 μM retinoic acid at start): 94.7% | 13-cis isomer present at end of assay ([7]; 10 μM retinoic acid at start): 1.1% | all-trans isomer present at end of assay ([7]; 10 μM retinoic acid at start): 4.2% | 13-cis isomer present at end of assay ([7]; 10 μM retinoic acid at start, listed as 9-cis-retinoic acid): ~1.1% | final concentration of 13-cis-retinoic acid formed by isomerization [7]: approximately 0.1 μM
